Results published in PMC11875395, “Phenolic metabolism in Sarcandra glabra is mediated by distinct BAHD hydroxycinnamoyltransferases” (The Plant Journal, 2025).

Key:
Assay in all cases: HPLC product formation, Michaelis-Menten
Format in all cases: biochemical, Sarcandra glabra
SgRAS = test system: T1, SgRAS; conditions: 0.1 M potassium phosphate, exact conditions in Table S15
T1 construct: full length, 449 residues, 49348 Da
Source text: HPLC product formation, Michaelis-Menten on SgRAS

SgHST = test system: T2, SgHST; conditions: 0.1 M potassium phosphate, exact conditions in Table S12
T2 construct: full length, 436 residues, 48424 Da
Source text: HPLC product formation, Michaelis-Menten on SgHST

SgHQT2 = test system: T3, SgHQT2; conditions: 0.1 M potassium phosphate, exact conditions in Table S14
T3 construct: full length (5'-RACE), 441 residues, 48847 Da
Source text: HPLC product formation, Michaelis-Menten on SgHQT2

SgHQT1 = test system: T4, SgHQT1; conditions: 0.1 M potassium phosphate, exact conditions in Table S13
T4 construct: full length, 427 residues, 47772 Da
Source text: HPLC product formation, Michaelis-Menten on SgHQT1

[1] = with 4-hydroxyphenyllactic acid (pHPL)

**Q.** `O=C(O)[C@H](O)Cc1ccc(O)c(O)c1` was tested. Which Km (SgRAS; with p-coumaroyl-CoA) did it give?
**A.** Its Km is 867 ± 105 µM.

**Q.** `Nc1c(O)cccc1C(=O)O` [3‐Hydroxyanthranilic acid, 2‐amino‐3‐hydroxybenzoic] was tested. Which Km (SgHST; with p-coumaroyl-CoA) did it give?
**A.** Its Km is 238 ± 19.6 µM.

**Q.** For `O=C(O)C(O)Cc1ccc(O)cc1` (stereo not shown) [4‐hydroxyphenyllactic acid], which Km (SgRAS; with p-coumaroyl-CoA) is on record?
**A.** The Km was 544 ± 47.4 µM.

**Q.** What does the source list for `CC(C)(COP(=O)(O)OP(=O)(O)OC[C@H]1O[C@@H](n2cnc3c(N)ncnc32)[C@H](O)[C@@H]1OP(=O)(O)O)[C@@H](O)C(=O)NCCC(=O)NCCSC(=O)/C=C/c1ccc(O)c(O)c1` [Caffeoyl‐CoA]?
**A.** Km (SgHQT2; with quinic acid): 213 ± 53.5 µM; Km (SgHQT1; with quinic acid): 9.3 ± 2.5 µM; Km (SgRAS; [1]): 57.2 ± 15.7 µM; Km (SgHST; with shikimic acid): 21.4 ± 6.8 µM

**Q.** What does the source list for `O=C(O)[C@]1(O)C[C@@H](O)[C@@H](O)[C@H](O)C1` [Quinic acid]?
**A.** Km (SgHQT2; with p-coumaroyl-CoA): 11100 ± 1560 µM; Km (SgHQT1; with p-coumaroyl-CoA): 5520 ± 713 µM; K m (μM) (SgHST; with p-coumaroyl-CoA): 16 740.0 ± 1833.0 μM

**Q.** What does the source list for `O=C(O)C1=C[C@@H](O)[C@@H](O)[C@H](O)C1` [Shikimic acid]?
**A.** K m (μM) (SgHQT1; with p-coumaroyl-CoA, n = 3 ± SD): 85 440.0 ± 18 700.0 μM; Km (SgHST; with p-coumaroyl-CoA): 1220 ± 153 µM

**Q.** Which results are given for `CC(C)(COP(=O)(O)OP(=O)(O)OC[C@H]1O[C@@H](n2cnc3c(N)ncnc32)[C@H](O)[C@@H]1OP(=O)(O)O)[C@@H](O)C(=O)NCCC(=O)NCCSC(=O)/C=C/c1ccc(O)cc1` [p‐Coumaroyl‐CoA]?
**A.** Km (SgHQT2; with quinic acid): 82.3 ± 14.8 µM; Km (SgHQT1; with quinic acid): 19.9 ± 3.4 µM; Km (SgRAS; [1]): 14.6 ± 1.7 µM; Km (SgHST; with shikimic acid): 17.4 ± 4.9 µM
